Read-outs that look alike come from different tables or passages of the source.
Columns and labels:
[1] = system: Barrett's esophagus tissue; assay: phase I/II trial of photodynamic therapy using HPPH in patients with Barrett's esophagus; format: in vivo, human; details: 30 patients
Procedure: injecting HPPH in a physiologically compatible medium into a patient having Barrett's esophagus tissue to provide a dose level of 3 through 5 mg/m^2 of body surface area, preferably 3 through 4 mg/m^2 of body surface area,
waiting for a time period of 24 through 60 hours to permit preferential absorption of the
HPPH into Barrett's esophagus tissue, and exposing the Barrett's esophagus tissue to light at a wavelength of about 670±5 nm at an energy of from 75 to 200 Joules/cm, preferably 75 to 200 Joules/cm.
Injection of the HPPH is preferably accomplished intravenously usually over a time period of 0.75 to 3 hours in a physiologically compatible medium. The time period is functionally dependent upon rate of infusion and dose level desired. The concentration is preferably 0.5 through 1.5 mg/ml in medium and the medium is preferably 0.1% polysorbate 80, 2% ethyl alcohol and 5% glucose in normal saline.
Exposure is accomplished using a fiber optic carrying laser light emitted by a laser. The laser may be any suitable laser emitting light at the wavelength and energy desired, e.g. a dye or diode laser. Exposure may be adjusted by length of time of exposure and/or adjustment of light intensity.
Using the above parameters, a phase I/II trial using HPPH and a phase III trial using PHOTOFRIN™, the latter approved by the United States Food and Drug Administration, the following results for response of Barrett's esophagus were obtained.

Barrett's mucosa = details: cited from earlier work; for Treatment response: CR, PDT + NdYAG thermal ablation: compilation of 1-3 PDT treatments + thermal ablation of small residual islands; for Complications: esophageal stricture / Treatment response: CR (no Barrett's esophagus tissue remained after treatment), PDT only: compilation of 1-3 PDT treatments; for Treatment response: CR (no Barrett's esophagus tissue remained after treatment), PDT only: porfimer sodium 2 mg/kg
[2] = only 1 PDT treatment, percent of patients
[3] = 100 patients, percent of patients
[4] = 100 patients, percent of patients, listed as porfimer sodium

Row | Complications: esophageal stricture [1, 2] [%] | Complications: sunburn ([1]; percent of patients) [%] | Substance | Treatment response: patients with >90 to <100% ablation, PDT only ([1]; only 1 PDT treatment, does not include NdYAG thermal ablation) | Treatment response: CR (no Barrett's esophagus tissue remained after treatment), PDT only [1, 2] [% CR] | Complete ablation of Barrett's mucosa (PDT only or with thermal ablation) (Barrett's mucosa; 100 patients, 2 mg/kg, 630 nm, 100 to 250 J/cm, percent of patients) [%] | Treatment response: CR, PDT + NdYAG thermal ablation (Barrett's mucosa; [3]) [% CR] | Treatment response: CR, PDT + NdYAG thermal ablation (Barrett's mucosa; [4]) [%] | Complications: esophageal stricture (Barrett's mucosa; [3]) [%] | Complications: esophageal stricture (Barrett's mucosa; [4]) [%] | Treatment response: CR (no Barrett's esophagus tissue remained after treatment), PDT only (Barrett's mucosa; 100 patients, 630 nm, 100 to 250 J/cm, percent of patients) [% CR] | Treatment response: CR (no Barrett's esophagus tissue remained after treatment), PDT only (Barrett's mucosa; 100 patients, 630 nm, 100 to 250 J/cm, percent of patients, listed as porfimer sodium) [%] | Complications: sunburn (Barrett's mucosa; [3]) | replacement of Barrett's mucosa with normal esophageal mucosa (Barrett's mucosa; all 100 patients treated, 2 mg/kg, 630 nm, 100 to 250 J/cm, percent of mucosa)
1 | 12 | <7 | 3-(1-hexyloxy) ethyl-derivative of pyropheophorbide-a [HPPH] | 47% (>90 to <100% | 4 |  |  |  |  |  |  |  |  | 
2 |  |  | porfimer sodium [PHOTOFRIN] |  |  | 43 | 35 | 35 | 34 | 34 | 8 | 8 | 25-30% | 75-80%

Source: patent US20100130909A1, “TREATMENT OF BARRETT'S ESOPHAGUS USING PHOTODYNAMIC THERAPY” (HEALTH RESEARCH, INC., priority 2007, published 2010)
